Assays:
[1] = test system: T98G glioma cells; test: Cytotoxicity assay, CellTiter-Glo; assay type: cell-based, human; details: up to 50 μM, 72 hr
Experimental: Cytotoxicity Assay. Cytotoxic effects of drugs on glioma cells were analyzed by quantifying the ATP, an indicator of metabolically active cells. Briefly, glioma cells were seeded in tissue culture treated white 96-well plates at 3×10^3 cells/well in 80 μL Opti-MEM media (Invitrogen) and incubated for 24 hr at 37° C. After 24 hr incubation, 20 μL of 5× drug solution at required concentration in Opti-MEM was added to each well and incubated for 72 hr at 37° C. Opti-MEM/DMSO mixture without drug was used as negative control and 20 μM staurosporine was used as positive control. At the end of 72 hr incubation, the number of viable cells were quantified by using CellTiter-Glo assay kit (Promega, Madison, Wis.) according to the manufacturer's instructions. Luminescence signal measured was normalized to negative control to determine % cell viability.

[2] = target: T1, TWEAK (Homo sapiens, UniProt O43508); test: Surface Plasmon Resonance assay, TWEAK sensor surface; assay type: binding; details: SPR, 0 to 50 μM
T1 sequence (O43508 94-249 limits assumed): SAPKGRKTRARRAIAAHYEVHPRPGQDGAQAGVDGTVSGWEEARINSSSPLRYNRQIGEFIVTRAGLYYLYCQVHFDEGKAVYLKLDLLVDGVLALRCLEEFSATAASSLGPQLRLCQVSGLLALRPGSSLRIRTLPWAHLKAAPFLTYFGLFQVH
Experimental: Surface Plasmon Resonance (SPR) Assay. The binding affinity of at least one of the compounds (e.g., L524-0366) to TWEAK and Fn14-Fx was determined using a BIAcore T100 optical biosensor (GE Healthcare) at 25 degrees Celsius at the Arizona Proteomics Consortium. Recombinant human TWEAK (20 μg/mL in 10 mM HEPES pH 7.4, 150 mM NaCl, 3 mM EDTA, 0.05% Tween 20) or recombinant human Fn14-Fc (20 μg/mL in 10 mM NaOAc pH 4.0) were covalently coupled to separate flow cells on a BIAcore CM5 sensor chip using standard amine coupling chemistry as per manufacturer's protocol. Final immobilization levels were 6000 Response Units (RU) for TWEAK and 13,000 RU for FN14-Fc. The first flow path of the chip was treated with the same coupling and blocking reagents without protein and was used as a reference for each binding cycle. Functionality of the TWEAK and the Fn14-Fc sensor surfaces were verified by injecting Fn14-Fc and TWEAK over them respectively. Serial dilutions of L524-0366 or cycloheximide (control) from 0 to 50 μM were made in running buffer (10 mM HEPES pH 7.4, 150 mM NaCl, 3 mM EDTA, 1% DMSO). […] Equilibrium dissociation constants for the small molecules were calculated by fitting the double reference subtracted data to Req=((CRmax)/(KD+C))+RI, where RI is the bulk refractive index contribution.

binding to TWEAK [2]: not to the TWEAK surface
Structure (SMILES): O=C(c1cn(-c2cccc(Cl)c2)nn1)N1CCSCC1 [Compound L524-0366]
cytotoxicity [1]: did not demonstrate any cytotoxicity
